Patent publication US7947726B2, “Non-steroidal ligands for the glucocorticoid receptor, and compositions thereof” (The Regents of the University of California, priority 2002, dated 2011)
Values joined by “and” are separate entries in the source; they are usually repeats but may differ in a detail not shown here. Equal entries are not always repeated. Where two headings read alike, the source gives them in different places.

Key:
[1] = target: T1, glucocorticoid receptor (GR) (Homo sapiens, UniProt P04150); experiment: Glucocorticoid Receptor Competitor Assay Kit (Panvera) ligand binding; conditions: relative binding affinity, dexamethasone = 100; for GR binding RBA (dex = 100): Table 3
T1 construct: purchased Panvera Corp, Madison, Wis
T1 sequence (P04150 1-777): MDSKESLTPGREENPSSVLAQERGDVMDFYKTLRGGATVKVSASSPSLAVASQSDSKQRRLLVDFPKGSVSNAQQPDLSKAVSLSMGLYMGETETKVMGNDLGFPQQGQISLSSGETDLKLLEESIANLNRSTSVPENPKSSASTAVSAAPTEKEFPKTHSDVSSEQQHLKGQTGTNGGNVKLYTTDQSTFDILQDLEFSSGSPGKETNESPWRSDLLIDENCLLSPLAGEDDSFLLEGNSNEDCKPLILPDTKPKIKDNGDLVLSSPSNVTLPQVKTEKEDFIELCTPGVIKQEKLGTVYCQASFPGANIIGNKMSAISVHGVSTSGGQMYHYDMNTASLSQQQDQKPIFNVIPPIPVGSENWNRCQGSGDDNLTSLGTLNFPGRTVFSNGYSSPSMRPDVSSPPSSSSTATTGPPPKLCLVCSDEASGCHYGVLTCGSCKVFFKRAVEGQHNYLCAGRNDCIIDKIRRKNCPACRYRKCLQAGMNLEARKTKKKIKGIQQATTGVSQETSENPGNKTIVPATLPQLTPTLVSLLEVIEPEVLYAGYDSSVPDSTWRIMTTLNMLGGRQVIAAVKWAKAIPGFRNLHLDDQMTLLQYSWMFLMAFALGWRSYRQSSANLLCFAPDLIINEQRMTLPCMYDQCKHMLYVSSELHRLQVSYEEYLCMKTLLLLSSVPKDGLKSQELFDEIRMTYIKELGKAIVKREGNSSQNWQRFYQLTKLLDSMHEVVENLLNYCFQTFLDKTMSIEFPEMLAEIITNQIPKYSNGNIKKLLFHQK
Source text: The Glucocorticoid Receptor Competitor Assay Kit (Panvera Corp, Madison, Wis.) was used for ligand binding studies. The recommended room temperature protocol was followed for all assayed ligands.

GR = target: T2, GR (Homo sapiens, UniProt P04150); experiment: GRE (TAT3-Luc) activation luciferase assay in CV-1 cells transfected with GR; format: cell-based
T2 construct: expressed in transfected cells; host or cells: CV-1 cells, transient transfection (plasmid a gift of Keith Yamamoto, UCSF)
T2 sequence (P04150 1-777): T1 sequence (P04150 1-777)
Procedure: Cells were plated into tissue culture treated, 96 well flat bottom plates (25,000 cells/well), and incubated for 12 h at 37° C. Cells were then transfected using the Lipofectamine PLUS transfection reagent (Gibco BRL). DNA-lipid complexes of 5 ng GR, 50 ng TAT3-Luc, 7.5 ng β-galactosidase, 1 μL-well PLUS reagent and 0.67 μL-well lipofectamine in 50 μL/well serum free media were added to cells and incubated for 4 h at 37° C. Complexes were removed and hormones diluted in 5% charcoal-stripped FBS were added to the cells, which were then incubated for 24 hours at 37° C. Media was removed and the cells were washed with 100 μL Ca^+2, Mg^+2 free phosphate buffered saline (PBS). Lysis was achieved by adding 50 μL of Passive Lysis Buffer (Promega Corp, Madison, Wis.) and shaking the plate for 15 min. 15 μL of this lysate was then used to assay β-galactosidase activity (β-galactosidase enzyme assay system, Promega Corp., recommended procedures followed). The Luciferase Assay System (Promega Corp.) was used to assay luciferase activity. 100 μL of luciferase assay reagent was added rapidly to the plate and luminescence was measured for 10 ms/well on an Analyst AD Detection System (LJL Biosystems, Sunnyvale, Calif.).

PR = target: T3, PR (Homo sapiens, UniProt P06401); experiment: PR activation (max fold activation); format: cell-based; conditions: Table 4
T3 sequence (P06401 1-933): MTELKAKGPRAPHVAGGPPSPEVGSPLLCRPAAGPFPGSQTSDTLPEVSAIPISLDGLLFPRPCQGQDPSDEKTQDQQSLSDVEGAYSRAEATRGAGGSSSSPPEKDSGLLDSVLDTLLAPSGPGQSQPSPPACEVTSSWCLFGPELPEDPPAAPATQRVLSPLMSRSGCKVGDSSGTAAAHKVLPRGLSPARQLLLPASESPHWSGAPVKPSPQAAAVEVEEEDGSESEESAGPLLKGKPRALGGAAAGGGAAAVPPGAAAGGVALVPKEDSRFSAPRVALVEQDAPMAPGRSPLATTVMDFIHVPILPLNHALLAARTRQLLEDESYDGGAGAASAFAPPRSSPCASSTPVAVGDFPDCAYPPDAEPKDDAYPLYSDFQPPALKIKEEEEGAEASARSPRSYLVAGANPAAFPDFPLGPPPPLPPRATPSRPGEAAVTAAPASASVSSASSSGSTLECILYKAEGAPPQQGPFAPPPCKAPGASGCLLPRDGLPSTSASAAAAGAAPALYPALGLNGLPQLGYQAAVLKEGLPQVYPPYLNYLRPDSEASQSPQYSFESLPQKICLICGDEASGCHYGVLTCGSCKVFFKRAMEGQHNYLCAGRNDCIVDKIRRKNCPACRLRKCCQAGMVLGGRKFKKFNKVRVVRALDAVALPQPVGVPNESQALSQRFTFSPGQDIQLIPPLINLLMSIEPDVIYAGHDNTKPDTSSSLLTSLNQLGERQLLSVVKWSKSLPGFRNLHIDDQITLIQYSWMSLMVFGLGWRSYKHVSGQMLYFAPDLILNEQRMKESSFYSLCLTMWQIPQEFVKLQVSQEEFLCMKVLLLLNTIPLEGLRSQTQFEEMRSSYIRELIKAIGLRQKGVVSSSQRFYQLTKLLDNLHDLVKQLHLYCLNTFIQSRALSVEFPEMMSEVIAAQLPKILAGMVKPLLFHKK

Coll A = Coll A repression; format: cell-based; conditions: Table 5; for Emax: read-out: Repression Coll A % max repression; for EC50: read-out: Repression Coll A pot (EC50)
[2] = Table 4, read-out: GR pot (EC50)

Structure (SMILES): Cc1cc(O)cc(C)c1C(O)C1CCCC2=Cc3c(cnn3-c3ccc(F)cc3)CC21C (stereo not drawn) [Compound 227, 4-{[1-(4-Fluoro-phenyl)-4a-methyl-4,4a,5,6,7,8-hexahydro-1H-benzo[f]indazol-5-yl]-hydroxy-methyl}-3,5-dimethyl-phenol]
- GR Binding RBA (dexamethasone = 100) ([1]; Table 1): 50
- GR binding RBA (dex = 100) [1]: 103
- EC50 (GR; Table 1, read-out: GR pot(EC50)): 125 nM
- GRE activation max fold activation (GR; Table 4): 95 ± 23
- EC50 (GR; [2]): 130 ± 43 nM
- PR max fold activation (PR): 144 ± 32
- Emax (Coll A): 75%
- EC50 (Coll A): 6.9 nM

Structure (SMILES): CC12Cc3cnn(-c4ccc(F)cc4)c3C=C1CCCC2C(O)c1cccc2[nH]ccc12 (stereo not drawn) [Compound 237, [1-(4-Fluoro-phenyl)-4a-methyl-4,4a,5,6,7,8-hexahydro-1H-benzo[f]indazol-5-yl]-(1H-indol-4-yl)-methanol]
- GR binding RBA (dex = 100) [1]: 110
- GRE activation max fold activation (GR; Table 4): 92 ± 18
- EC50 (GR; [2]): 149 ± 91 nM
- Emax (Coll A): 75%
- EC50 (Coll A): 8.1 nM

Structure (SMILES): CC12Cc3cnn(-c4ccc(F)cc4)c3C=C1CCCC2C(O)c1ccsc1 (stereo not drawn) [Compound 238, [1-(4-Fluoro-phenyl)-4a-methyl-4,4a-5,6,7,8-hexahydro-1H-benzo[f]indazol-5-yl]-thiophen-3-yl-methanol]
- GRE activation max fold activation (GR; Table 4): 86 ± 4 and 112 ± 75
- EC50 (GR; [2]): 251 nM and 230 nM
- PR max fold activation (PR): 155 ± 32 and 109 ± 10
- Emax (Coll A): 68%
- EC50 (Coll A): 27 nM
